# What was measured:
# [1] = tested on: sham or OVX female C57BL/6 mice; assay: microCT of femur in estrogen-deficient ovariectomy (OVX) model, GSK126 for 6 weeks; assay type: in vivo, mouse; details: for SMI / Tb.N / Tb.Sp / Tb.Th / BV/TV: distal femur metaphysis; for SMI / Tb.N / Tb.Sp / Tb.Th / Ct. Ar / Ct. BV / Ct. Mat.M.Dn / Ct. Ps.Ar / Ct. Th / Ec. Ar / BV/TV: 50 mg/kg, 6 weeks; for SMI / Tb.N / Tb.Sp / Tb.Th / Ct. Ar / Ct. BV / Ct. Mat.M.Dn / Ct. Ps.Ar / Ct. Th / Ec. Ar / Ct. TV / BV/TV: mean; for Ct. Ar / Ct. BV / Ct. Mat.M.Dn / Ct. Ps.Ar / Ct. Th / Ec. Ar / Ct. TV: femoral midshaft; for Ct. TV: GSK126 50 mg/kg daily IP 6 weeks; for BV/TV: trabecular bone
# Description: The effects of GSK126 administration on the skeleton was evaluated in an estrogen-deficient ovariectomy (OVX) model. At about 12 weeks of age, female C57BL/6 mice underwent either sham or OVX surgeries. The following day, animals received daily IP injections of GSK126 or vehicle (DMSO) at 50 mg/kg body weight for 6 weeks as described herein. To label mineralizing bone surfaces and study bone formation rates, mice received subcutaneous injections of tetracycline (25 mg/kg) 14 days prior sacrifice and calcein (10 mg/kg) at 5 days and 24 hours before euthanasia.
# The quantitative analysis of the femoral metaphysis was performed using a vivaCT 40 scanner (SCANCO Medical AG) with the following parameters: E=55 kVp, 1=145 μA, integration time=300 ms. A 10.5 μm voxel size using a threshold of 220 was applied to all scans at high resolution. Using two-dimensional data from scanned slices, 3D analysis was generated and used to calculate morphometric parameters defining trabecular bone mass and micro-architecture, including Bone Volume/Tissue volume (BV/TV), trabecular number (Tb.N.), trabecular thickness (Tb.Th.), trabecular spacing (Tb.Sp.), and the structure model index (SMI), an indicator of plate-like versus rod-like trabecular architecture.
# mouse calvarial explants = assay: RT-qPCR mRNA expression in calvarial explants; assay type: cell-based; details: calvarial explants from neo-natal and adult mice, 3 μM, 12 days ex vivo
# Description: Calvariae from 2 to 3-day-old and from 7-week old C57BL/6 mice were dissected aseptically. The calvarial bone explants were cultured in 48-well plates in α-MEM (Biochrom) containing 10% FCS (Biochrom), 50 μg/mL ascorbic acid (Sigma-Aldrich), 5 mM β-glycerophosphate (Sigma-Aldrich), and 10 μg/mL gentamicin (Sigma-Aldrich). The day after dissection, medium was changed, and a part of the explants was treated with 3 μM L- or DL-SFN for 12 days. Thereafter, one part of the calvariae were fixed for 1 hour in 4% para-formaldehyde (PFA), and mineralization was measured by Alizarin Red S stain (Sigma-Aldrich). For this purpose, Alizarin Red S dye was extracted using 10% cetylpyridinium chloride (CPC) in 10 mM sodiumphosphate (pH=7.0) for 45 minutes at room temperature. Alizarin Red S absorbance was measured at 562 nm in a multi-plate reader (Tecan, Maennedorf, Switzerland) and normalized to total protein amount measured by bicinchoninic acid assay (Thermo Fisher Scientific, Waltham, Mass., USA). […]
# Total RNA was extracted using the SV Total RNA Isolation kit (Promega) following the supplier's instructions. cDNA was synthesized from about 0.5 μg RNA using the First Strand cDNA Synthesis kit (Roche) as described by the supplier. […] All RT-qPCR assays were performed in triplicate, and expression was evaluated using the comparative quantification method (Pfaffl, Nucleic Acids Res., 29:e45 (2001)).
# [2] = tested on: sham operated or ovariectomized (OVX) C57B16/J female mice; assay: In vivo analysis of SFN effects on bone, μCT; design: species or system mouse; details: sham-operated mice
# Description: Analysis of SFN on mice was performed using a protocol similar to that described elsewhere (Kong et al., Arthritis Rheum., 62:159-170 (2010)). In the experimental setting herein, eight week old sham operated or ovariectomized (OVX) C57B16/J female mice were purchased from Charles River laboratories. Mice were injected with 7.5 mM DL-SFN (200 μL of SFN at a concentration of 63.8 mg/mL/kg dissolved in ethanol and further diluted in PBS) intraperitoneally every other day for five weeks. Control mice received vehicle alone.
# Images from tibias fixed in 4% formaldehyde were acquired in a SkyScan 1174 with a resolution of 6 μm (X-ray voltage 50 kV). Image reconstruction was performed by applying a modified Feldkamp algorithm using the Skyscan Nrecon software. 3D and 2D morphometric parameters were calculated for the trabecular bone (350 consecutive slides, 6 μm thick) starting from 300 μm from the growth plate. Threshold values were applied for segmenting trabecular bone corresponding to bone mineral density values of 0.6/cm^3 calcium hydroxyapatite. 3D parameters were based on analysis of a Marching Cubes type model with a rendered surface. Calculation all of 2D areas and perimeters was based on the Pratt algorithm (Pratt et al., IEEE Trans. Biomed. Eng., 38, 306-309 (1991). Bone structural variables and nomenclature were used according to Bouxsein et al. (J. Bone Miner. Res., 25:1468-1486 (2010)).
smiles,measurement,setting,value
"CC[C@H](C)n1cc(C)c2c(C(=O)NCc3c(C)cc(C)[nH]c3=O)cc(-c3ccc(N4CCNCC4)nc3)cc21 [GSK126, N-[(1,2-dihydro-4,6-dimethyl-2-oxo-3-pyridinyl)methyl]-3-methyl-1-[(1S)-1-methylpropyl]-6-[6-(1-piperazinyl)-3-pyridinyl]-1H-indole-4-carboxamide]",SMI,[1]; OVX,3.758
same,Tb.N,[1]; OVX,2.102 mm^−1
same,Tb.Sp,[1]; OVX,0.499 mm
same,Tb.Th,[1]; OVX,0.047 mm
same,Ct. Ar,[1]; OVX,0.771 mm^2
same,Ct. BV,[1]; OVX,0.405 mm^3
same,Ct. Mat.M.Dn,[1]; OVX,1067 mgHA/cm^3
same,Ct. Ps.Ar,[1]; OVX,0.809 mm^2
same,Ct. Th,[1]; OVX,0.19 mm
same,Ec. Ar,[1]; OVX,0.038 mm^2
same,Ct. TV,[1]; OVX,0.425 mm^3
same,BV/TV,[1]; OVX,1.404%
same,SMI,[1]; SHAM,4.168
same,Tb.N,[1]; SHAM,2.496 mm^−1
same,Tb.Sp,[1]; SHAM,0.402 mm
same,Tb.Th,[1]; SHAM,0.042 mm
same,Ct. Ar,[1]; SHAM,0.782 mm^2
same,Ct. BV,[1]; SHAM,0.411 mm^3
same,Ct. Mat.M.Dn,[1]; SHAM,1065 mgHA/cm^3
same,Ct. Ps.Ar,[1]; SHAM,0.82 mm^2
same,Ct. Th,[1]; SHAM,0.197 mm
same,Ec. Ar,[1]; SHAM,0.037 mm^2
same,Ct. TV,[1]; SHAM,0.430 mm^3
same,BV/TV,[1]; SHAM,1.642%
same,OVX-induced cortical bone loss,"[1]; ovariectomized female mice, daily regimen, in words",mitigated
C[S+]([O-])CCCCN=C=S (racemic) [DL-SFN],Tnfsf11 expression,mouse calvarial explants,decreased
same,femoral metaphyseal cancellous bone volume per tissue volume (BV/TV),[2]; DL-SFN IP every other day for five weeks,significantly higher
same,trabecular number (Tb.N),[2]; DL-SFN for five weeks,significantly higher
same,trabecular separation (Tb.Sp.),[2]; DL-SFN for five weeks,decreasing
same,trabecular thickness (Tb.Th.),[2]; DL-SFN for five weeks,not affecting
